Assay results taken from patent publication US20040087602A1, “Stabilized brivudine topical formulations” (priority 2001, published 2004).
Values joined by “and” are separate entries in the source; they are usually repeats but may differ in a detail not shown here. Equal values may be shown once.

Key:
[1] = tested on: 23 clinical HSV-1 strains; conditions: mean of 23 clinical HSV-1 strains, in vitro; cited from earlier work
13 clinical VZV strains = conditions: mean of 13 clinical VZV strains, in vitro; cited from earlier work
[2] = photodegradation according to ICH guideline CPMP/ICH/279/95; type: physicochemical; conditions: unpacked samples without stabilizer, 9.6 hours at 49.5 W/m^2 (dose 475 Wh/m^2)
From the text: The degradation of brivudine was investigated according to the ICH (International Conference on Harmonization) guideline CPMP/ICH/279/95. […] The brivudine content decreases from about 100% to about 70% after irradiation. At the same time the samples show an increase of known and unknown impurities of about 30%.

[3] = photo-stabilization test of cream, UV-lamp irradiation; type: physicochemical; conditions: 2 hours UV-lamp
Protocol: Studies of photo-stabilization were conducted encapsulating the active ingredient in cyclodextrin-complexes (e.g. α-, β-, γ-cyclodextrin-complexes) or adding different stabilizers. Known photo-stabilizers like anti-oxidants (e.g. propylgallate, alfa-liponic acid), chemical UV-filters (e.g. octyl triazone) and pigments (titanium dioxide, zinc oxid, iron oxid yellow) were used. The efficiency of photo-stabilization was tested by determination of the content of brivudine after 2 hours of irradiation with UV-lamp (dose of 1 MED [Minimal […] dose, 24.8 Wh/m^2, UVA-light]. UVA-light was applied directly to the cream without primary packaging The higher the content of unchanged brivudine after irradiation, the better the photo-stability. […] The pigment iron oxide yellow at a concentration 20% w/w also gave about 85% brivudine content.

[4] = tested on: 20 clinical isolates (HSV-1); conditions: two similar assays, one value per assay; cited from earlier work

Row | Structure (SMILES) | mean IC50 in a panel of 23 clinical HSV-1 strains [1] [µg/mL] | mean IC50 in 13 clinical VZV strains (13 clinical VZV strains) [µg/mL] | increase of known and unknown impurities [2] | brivudine content after irradiation ([2]; from about 100%) | brivudine content after irradiation ([3]; iron oxide yellow 20% w/w, 1 MED) | brivudine final content after irradiation ([3]; titanium dioxide 20% w/w, 1 MED) | brivudine content after irradiation, % of the initial concentration ([3]; without photo-stabilizer, 5% w/w brivudine cream, 1 MED (24.8 Wh/m^2, UVA)) | mean IC50 in a panel of 20 clinical isolates [4]
1 | Nc1nc2c(ncn2COCCO)c(=O)[nH]1 [acyclovir] | 0.92 | 0.2 | – | – | – | – | – | –
2 | O=c1[nH]c(=O)n([C@H]2C[C@H](O)[C@@H](CO)O2)cc1/C=C/Br [brivudine, (E)-5-(2-bromovinyl)-2′-deoxyuridine] | 0.52 | 0.001 | about 30% | about 70% | about 85% | about 85% | about 40% | –
3 | Nc1nc2c(ncn2CCC(CO)CO)c(=O)[nH]1 [penciclovir] | – | 0.91 | – | – | – | – | – | 0.6 µg/mL and 0.8 µg/mL
